The record followed here is paper PMC12062775, “Shifting the substrate scope of dimeric pyranose oxidase from monosaccharide to glycoside preference through oligomeric state modification” (The Febs Journal, 2025).

Molecules are shown by their SMILES.

The subject of assay [1] is T1, KaPOx_xal.
T1 construct: gene KaPOx; KaPOx with arm domain and oligomerization loop replaced by ScPOx insertion-1 domain and flexible loop; C-terminal His6; pET-21a(+), E. coli T7 Express
The assay can be described thus: Amplex Red / horseradish peroxidase coupled oxidase assay, steady state. The format is biochemical, Kitasatospora aureofaciens. The settings on record: air O2 ~250 μM, 50 mM Tris/HCl pH 7.5, 30 °C; read-out: [drawing 2] Phlorizin / K m/mM. The source says: Amplex Red / horseradish peroxidase coupled oxidase assay, steady state on KaPOx_xal

Assay [2] concerns T2, KaPOx_xalh.
T2 construct: gene KaPOx; C-terminal His6; pET-21a(+), E. coli T7 Express
The assay is described as above. To be noted: air O2 ~250 μM, 50 mM Tris/HCl pH 7.5, 30 °C; read-out: [drawing 2] Phlorizin / K m/mM. The format is biochemical, Kitasatospora aureofaciens. The source says: Amplex Red / horseradish peroxidase coupled oxidase assay, steady state on KaPOx_xalh

Regarding `O=C(CCc1ccc(O)cc1)c1c(O)cc(O)cc1O[C@@H]1O[C@H](CO)[C@@H](O)[C@H](O)[C@H]1O` [Phlorizin], the Km in assay [1] came to 0.015 ± 0.002 mM; in assay [2], 0.019 ± 0.003 mM.
